Tests used:
Assay in all cases: kinome screen (33PanQinase)
Assay type in all cases: biochemical
SAK = biological target: T1, SAK (Homo sapiens, UniProt O00444)
T1 construct: purchased Reaction Biology Europe GmbH (formerly ProQinase)
T1 sequence (O00444 1-970): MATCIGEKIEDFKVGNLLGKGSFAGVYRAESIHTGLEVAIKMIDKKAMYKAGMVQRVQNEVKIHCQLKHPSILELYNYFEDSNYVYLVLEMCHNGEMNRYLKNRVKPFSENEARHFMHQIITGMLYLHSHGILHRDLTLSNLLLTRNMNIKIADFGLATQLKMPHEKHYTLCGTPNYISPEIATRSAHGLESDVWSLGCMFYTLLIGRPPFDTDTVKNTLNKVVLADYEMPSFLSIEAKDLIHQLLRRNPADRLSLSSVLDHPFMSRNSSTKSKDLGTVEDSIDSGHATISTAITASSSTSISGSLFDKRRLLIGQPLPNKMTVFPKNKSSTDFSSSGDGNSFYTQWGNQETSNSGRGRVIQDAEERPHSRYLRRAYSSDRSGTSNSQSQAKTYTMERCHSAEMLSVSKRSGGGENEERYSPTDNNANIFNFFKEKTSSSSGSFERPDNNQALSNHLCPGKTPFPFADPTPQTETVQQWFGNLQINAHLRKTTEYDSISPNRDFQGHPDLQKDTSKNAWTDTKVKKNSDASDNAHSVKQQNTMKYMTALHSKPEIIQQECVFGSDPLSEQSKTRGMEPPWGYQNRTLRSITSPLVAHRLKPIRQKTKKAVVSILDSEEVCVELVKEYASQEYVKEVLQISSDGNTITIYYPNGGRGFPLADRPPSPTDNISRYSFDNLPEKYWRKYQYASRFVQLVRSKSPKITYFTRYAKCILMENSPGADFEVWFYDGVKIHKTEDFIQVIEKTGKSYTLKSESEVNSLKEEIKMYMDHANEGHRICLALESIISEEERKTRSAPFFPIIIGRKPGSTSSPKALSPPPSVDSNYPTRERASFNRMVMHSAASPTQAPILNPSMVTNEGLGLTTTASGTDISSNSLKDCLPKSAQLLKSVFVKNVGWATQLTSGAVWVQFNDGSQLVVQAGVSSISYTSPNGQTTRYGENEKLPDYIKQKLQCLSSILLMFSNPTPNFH
Description: (§1) The Kinome Screening was performed by Reaction Biology Europe GmbH (http://reactionbiology.com; Freiburg i. Br., Germany).

IGF1R = biological target: T2, IGF1R (Homo sapiens, UniProt P08069)
T2 construct: purchased Reaction Biology Europe GmbH (formerly ProQinase)
T2 sequence (P08069 31-1367): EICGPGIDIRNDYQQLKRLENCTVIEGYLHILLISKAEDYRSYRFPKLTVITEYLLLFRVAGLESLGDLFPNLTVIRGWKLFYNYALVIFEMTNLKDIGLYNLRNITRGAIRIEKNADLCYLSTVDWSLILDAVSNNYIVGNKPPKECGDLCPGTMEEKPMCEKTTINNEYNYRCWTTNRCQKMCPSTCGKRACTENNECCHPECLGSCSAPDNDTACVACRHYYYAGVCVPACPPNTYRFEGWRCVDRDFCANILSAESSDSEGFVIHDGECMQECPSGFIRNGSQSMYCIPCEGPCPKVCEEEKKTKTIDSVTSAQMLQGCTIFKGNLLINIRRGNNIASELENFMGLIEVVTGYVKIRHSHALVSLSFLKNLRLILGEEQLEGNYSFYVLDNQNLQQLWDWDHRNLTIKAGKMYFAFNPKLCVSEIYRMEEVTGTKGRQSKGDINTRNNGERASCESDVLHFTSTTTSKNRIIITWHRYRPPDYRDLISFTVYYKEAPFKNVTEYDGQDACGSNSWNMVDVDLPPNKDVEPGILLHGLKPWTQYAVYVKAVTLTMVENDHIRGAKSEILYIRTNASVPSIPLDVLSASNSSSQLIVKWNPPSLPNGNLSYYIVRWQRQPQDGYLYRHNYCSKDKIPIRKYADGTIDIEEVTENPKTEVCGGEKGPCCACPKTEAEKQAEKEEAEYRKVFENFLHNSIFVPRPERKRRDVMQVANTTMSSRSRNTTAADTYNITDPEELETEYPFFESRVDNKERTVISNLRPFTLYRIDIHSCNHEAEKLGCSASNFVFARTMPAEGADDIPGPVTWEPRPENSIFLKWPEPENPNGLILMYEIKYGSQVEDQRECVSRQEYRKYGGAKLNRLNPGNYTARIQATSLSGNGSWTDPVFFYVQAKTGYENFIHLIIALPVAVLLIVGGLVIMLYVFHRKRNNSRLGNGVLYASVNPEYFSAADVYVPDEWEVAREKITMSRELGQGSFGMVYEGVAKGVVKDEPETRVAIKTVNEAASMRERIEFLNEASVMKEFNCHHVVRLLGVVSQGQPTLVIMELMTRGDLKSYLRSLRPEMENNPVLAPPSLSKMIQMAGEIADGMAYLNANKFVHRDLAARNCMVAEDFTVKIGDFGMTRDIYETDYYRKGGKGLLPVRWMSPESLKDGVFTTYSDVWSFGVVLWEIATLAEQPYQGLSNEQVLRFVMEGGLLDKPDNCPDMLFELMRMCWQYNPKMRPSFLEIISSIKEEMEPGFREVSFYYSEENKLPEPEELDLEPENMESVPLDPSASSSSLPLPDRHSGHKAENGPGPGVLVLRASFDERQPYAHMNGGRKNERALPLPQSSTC
Description: as §1

PAK3 = biological target: T3, PAK3 (Homo sapiens, UniProt O75914)
T3 construct: purchased Reaction Biology Europe GmbH (formerly ProQinase)
T3 sequence (O75914 whole entry): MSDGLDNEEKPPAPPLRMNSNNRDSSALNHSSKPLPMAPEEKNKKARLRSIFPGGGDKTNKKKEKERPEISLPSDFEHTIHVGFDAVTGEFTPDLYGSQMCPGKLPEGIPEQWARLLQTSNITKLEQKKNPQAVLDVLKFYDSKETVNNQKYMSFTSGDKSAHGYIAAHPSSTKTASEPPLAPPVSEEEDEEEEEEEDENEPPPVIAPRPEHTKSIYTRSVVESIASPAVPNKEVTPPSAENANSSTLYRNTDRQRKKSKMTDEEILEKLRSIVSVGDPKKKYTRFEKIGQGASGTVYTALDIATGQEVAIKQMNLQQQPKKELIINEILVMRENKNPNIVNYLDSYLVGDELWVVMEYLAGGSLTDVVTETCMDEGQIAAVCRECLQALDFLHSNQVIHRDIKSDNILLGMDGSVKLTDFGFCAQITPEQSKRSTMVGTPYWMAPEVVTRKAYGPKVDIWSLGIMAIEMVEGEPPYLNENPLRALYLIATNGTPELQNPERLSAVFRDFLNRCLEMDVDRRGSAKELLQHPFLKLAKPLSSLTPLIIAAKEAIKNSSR
Description: as §1

SRPK2 = biological target: T4, SRPK2 (Homo sapiens, UniProt P78362)
T4 construct: purchased Reaction Biology Europe GmbH (formerly ProQinase)
T4 sequence (P78362 whole entry): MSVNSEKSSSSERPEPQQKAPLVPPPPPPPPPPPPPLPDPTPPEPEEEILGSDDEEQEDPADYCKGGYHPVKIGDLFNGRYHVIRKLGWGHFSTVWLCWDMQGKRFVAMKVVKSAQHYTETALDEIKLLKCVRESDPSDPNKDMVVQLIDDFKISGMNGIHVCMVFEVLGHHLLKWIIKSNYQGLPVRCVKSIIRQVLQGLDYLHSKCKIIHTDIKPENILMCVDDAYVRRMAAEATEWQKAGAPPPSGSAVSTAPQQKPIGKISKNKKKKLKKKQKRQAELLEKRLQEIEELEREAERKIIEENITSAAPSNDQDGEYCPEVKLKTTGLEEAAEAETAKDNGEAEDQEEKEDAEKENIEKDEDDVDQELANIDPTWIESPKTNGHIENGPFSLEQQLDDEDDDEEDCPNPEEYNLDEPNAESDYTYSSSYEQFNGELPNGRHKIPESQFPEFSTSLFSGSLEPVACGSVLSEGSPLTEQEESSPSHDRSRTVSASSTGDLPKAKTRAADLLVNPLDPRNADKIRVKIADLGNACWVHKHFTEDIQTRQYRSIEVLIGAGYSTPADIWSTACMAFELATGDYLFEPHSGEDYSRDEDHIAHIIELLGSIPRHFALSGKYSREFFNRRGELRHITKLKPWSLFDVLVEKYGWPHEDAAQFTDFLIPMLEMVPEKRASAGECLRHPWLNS
Description: as §1

PKA = biological target: T5, PKA (Homo sapiens, UniProt P17612)
T5 construct: purchased Reaction Biology Europe GmbH (formerly ProQinase)
Description: as §1

BMX = biological target: T6, BMX (Homo sapiens, UniProt P51813)
T6 construct: purchased Reaction Biology Europe GmbH (formerly ProQinase)
T6 sequence (P51813 1-675): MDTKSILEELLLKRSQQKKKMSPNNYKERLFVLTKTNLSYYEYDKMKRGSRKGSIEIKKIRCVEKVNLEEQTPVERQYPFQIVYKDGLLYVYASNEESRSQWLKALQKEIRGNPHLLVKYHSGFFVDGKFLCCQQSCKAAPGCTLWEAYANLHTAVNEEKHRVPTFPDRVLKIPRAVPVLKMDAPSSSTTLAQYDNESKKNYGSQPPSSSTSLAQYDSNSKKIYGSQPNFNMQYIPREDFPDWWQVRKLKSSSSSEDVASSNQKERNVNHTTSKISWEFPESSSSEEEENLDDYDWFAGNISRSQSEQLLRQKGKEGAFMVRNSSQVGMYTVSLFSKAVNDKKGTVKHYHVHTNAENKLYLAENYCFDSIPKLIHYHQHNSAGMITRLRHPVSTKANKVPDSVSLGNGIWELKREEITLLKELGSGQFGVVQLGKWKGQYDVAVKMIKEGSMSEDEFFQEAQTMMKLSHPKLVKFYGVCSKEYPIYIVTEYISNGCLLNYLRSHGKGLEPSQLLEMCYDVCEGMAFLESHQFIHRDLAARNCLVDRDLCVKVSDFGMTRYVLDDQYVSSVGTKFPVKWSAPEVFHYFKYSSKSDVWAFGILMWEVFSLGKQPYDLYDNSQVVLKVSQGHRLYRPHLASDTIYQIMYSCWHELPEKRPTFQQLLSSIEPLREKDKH
Description: as §1

STK25 = biological target: T7, STK25 (Homo sapiens, UniProt O00506)
T7 construct: purchased Reaction Biology Europe GmbH (formerly ProQinase)
T7 sequence (O00506 whole entry): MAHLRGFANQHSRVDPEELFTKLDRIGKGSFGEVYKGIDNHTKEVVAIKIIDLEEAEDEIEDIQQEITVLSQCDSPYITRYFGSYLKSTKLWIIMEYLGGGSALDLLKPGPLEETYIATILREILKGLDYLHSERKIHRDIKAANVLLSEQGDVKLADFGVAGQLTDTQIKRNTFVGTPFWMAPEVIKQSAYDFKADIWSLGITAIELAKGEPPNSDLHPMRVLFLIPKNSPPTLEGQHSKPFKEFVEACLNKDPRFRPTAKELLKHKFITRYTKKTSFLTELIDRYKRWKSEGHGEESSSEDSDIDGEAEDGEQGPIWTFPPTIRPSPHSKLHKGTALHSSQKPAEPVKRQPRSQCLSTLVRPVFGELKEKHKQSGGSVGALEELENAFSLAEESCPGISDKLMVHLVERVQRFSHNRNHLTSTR
Description: as §1

PKMYT1 = biological target: T8, PKMYT1 (Homo sapiens, UniProt Q99640)
T8 construct: purchased Reaction Biology Europe GmbH (formerly ProQinase)
T8 sequence (Q99640 1-499): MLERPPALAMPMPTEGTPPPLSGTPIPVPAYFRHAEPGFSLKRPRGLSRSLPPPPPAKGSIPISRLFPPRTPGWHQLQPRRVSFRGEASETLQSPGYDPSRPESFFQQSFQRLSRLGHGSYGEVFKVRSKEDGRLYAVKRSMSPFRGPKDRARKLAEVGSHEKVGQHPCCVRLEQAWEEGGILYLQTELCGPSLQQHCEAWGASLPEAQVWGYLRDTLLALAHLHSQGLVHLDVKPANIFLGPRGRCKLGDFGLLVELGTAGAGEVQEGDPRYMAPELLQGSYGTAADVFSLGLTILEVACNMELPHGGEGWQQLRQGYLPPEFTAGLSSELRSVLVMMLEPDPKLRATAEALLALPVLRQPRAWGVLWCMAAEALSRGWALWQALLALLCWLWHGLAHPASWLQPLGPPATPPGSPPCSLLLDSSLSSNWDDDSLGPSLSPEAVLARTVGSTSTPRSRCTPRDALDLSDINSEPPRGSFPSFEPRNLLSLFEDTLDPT
Description: as §1

Compound | residual kinase activity (SAK; 0.3 µM) | residual kinase activity (IGF1R; 0.3 µM) | residual kinase activity (PAK3; 0.3 µM) | residual kinase activity (SRPK2; 0.3 µM) | residual kinase activity (PKA; 0.3 µM) | residual kinase activity (BMX; 0.3 µM) | residual kinase activity (STK25; 0.3 µM) | residual kinase activity (PKMYT1; 0.3 µM) | further results
c1ccc(CNc2cc(-c3c[nH]c4ncccc34)ccn2)cc1 [meriolin 36] | 53 % of control | 128 % of control | 85 % of control | 87 % of control | 12 % of control | 109 % of control | 33 % of control | 39 % of control | residual kinase activity (SAK; 3 µM): 24 % of control; residual kinase activity (IGF1R; 3 µM): 83 % of control; residual kinase activity (PAK3; 3 µM): 40 % of control; residual kinase activity (SRPK2; 3 µM): 55 % of control; residual kinase activity (PKA; 3 µM): 2 % of control; residual kinase activity (BMX; 3 µM): 49 % of control; residual kinase activity (STK25; 3 µM): 6 % of control; residual kinase activity (PKMYT1; 3 µM): 13 % of control
COc1ccnc2[nH]cc(-c3cc(N)nc(N)c3)c12 [meriolin 16] | 84 % of control | 99 % of control | 84 % of control | 91 % of control | 43 % of control | 103 % of control | 81 % of control | 23 % of control | residual kinase activity (SAK; 0.03 µM): 97 % of control; residual kinase activity (IGF1R; 0.03 µM): 116 % of control; residual kinase activity (PAK3; 0.03 µM): 85 % of control; residual kinase activity (SRPK2; 0.03 µM): 93 % of control; residual kinase activity (PKA; 0.03 µM): 75 % of control; residual kinase activity (BMX; 0.03 µM): 118 % of control; residual kinase activity (STK25; 0.03 µM): 99 % of control; residual kinase activity (PKMYT1; 0.03 µM): 32 % of control

Reference: PMC11167047 (Cell Death Discovery, 2024)
